Experimental data reported in ChEMBL document CHEMBL5625209, “Rational design and optimization of acylthioureas as novel potent influenza virus non-nucleoside polymerase inhibitors” (Eur J Med Chem, 2023).
Active and inactive are the calls of the source. The calls are words filed in the database; no cut-off is given here.

Columns and labels:
Influenza A virus [1] = experiment: Antiviral activity against Influenza A virus H1N1 (A/Puerto Rico/8/34) infected in MDCK cells assessed as reduction in nucleocapsid protein mRNA level by qRT-PCR analysis; type: functional, organism-based; conditions: dose 2-31.3 nM
[2] = AUC(0 to t) in Sprague-Dawley rat at 10 mg/kg, po measured up to 24 hrs by LC-MS analysis; type: ADME, organism-based; conditions: in vivo
Influenza A virus [3] = experiment: Antiviral activity against Influenza A virus H1N1 (A/Puerto Rico/8/34) infected in MDCK cells assessed as reduction in virus-induced cytopathic effect incubated for 48 hrs by CCK8 assay; type: functional, organism-based
Influenza A virus [4] = experiment: Antiviral activity against Influenza A virus H1N1 (A/Puerto Rico/8/34) infected in MDCK cells assessed as reduction in nucleocapsid protein level by Western blot analysis; type: functional, organism-based; conditions: dose 2-125 nM
[5] = Metabolic stability in human plasma assessed as half life measured upto 120 mins by LC-MS/MS analysis; type: ADME, cell-free
[6] = Cytotoxicity against MDCK cells by CCK-8 assay; type: toxicity, cell-based, Canis lupus familiaris; conditions: dog
Influenza A virus [7] = experiment: Antiviral activity against Influenza A virus H1N1 (A/Puerto Rico/8/34) infected in MDCK cells assessed as reduction in NP viral RNA level at 1 uM treated at 4 hrs post infection by qRT-PCR analysis; type: functional, organism-based
[8] = Metabolic stability in human liver microsomes assessed as half life preincubated for 5 mins followed by NADPH addition and measured upto 45 mins by LC-MS analysis; type: ADME, Microsome; conditions: time < 50 min
Influenza A virus [9] = experiment: Antiviral activity against Influenza A virus H1N1 (A/Puerto Rico/8/34) infected in MDCK cells assessed as reduction in NP protein level at 1 uM treated at 4 hrs post infection by Western blot analysis; type: functional, organism-based
Influenza A virus [10] = experiment: Antiviral activity against Influenza A virus H1N1 (A/Puerto Rico/8/34) infected in MDCK cells assessed as reduction in viral proliferation at 20 nM pre-infected with virus for 1 hr followed by compound addition and measured after 48 hrs by crystal violet staining based plaque formation assay; type: functional, organism-based
[11] = Toxicity in BALB/c mouse assessed as ruffled fur at 1 g/kg, IG administered 3 times per day and measured for 14 days; conditions: in vivo, po, 1000 mg/kg, 336 h, time 14 day
Influenza A virus [12] = experiment: Antiviral activity against Influenza A virus H1N1 (A/Puerto Rico/8/34) infected in BALB/c mouse at 100 mg/kg/day, po administered twice daily for 7 days and measured after 14 days; type: functional; conditions: time 14 day
Influenza A virus [13] = experiment: Inhibition of Influenza A virus RdRp activity assessed as reduction in Fluc/Rluc ratio; conditions: dose 0.5-50 µM
[14] = Toxicity in BALB/c mouse assessed as clonic convulsion at 1 g/kg, IG administered 3 times per day and measured for 14 days; conditions: in vivo, po, 1000 mg/kg, 336 h, time 14 day
[15] = Tmax in Sprague-Dawley rat at 3 mg/kg, iv measured up to 24 hrs by LC-MS analysis; type: ADME, organism-based; conditions: in vivo
[16] = Metabolic stability in human plasma assessed as remaining compound measured upto 120 mins by LC-MS/MS analysis; type: ADME, cell-free; conditions: read-out: Stability
[17] = Half life in Sprague-Dawley rat at 10 mg/kg, po measured up to 24 hrs by LC-MS analysis; type: ADME, organism-based; conditions: in vivo
[18] = Metabolic stability in dog liver microsomes assessed as hepatic clearance preincubated for 5 mins followed by NADPH addition and measured upto 45 mins by LC-MS analysis; type: ADME, Canis lupus familiaris, Microsome; conditions: time < 50 min
[19] = Selectivity index, ratio of CC50 for MDCK cells to EC50 for antiviral activity against Influenza A virus H1N1 (A/Puerto Rico/8/34) infected in MDCK cells; type: toxicity, cell-based; conditions: dog, read-out: Ratio CC50/EC50
[20] = Tmax in Sprague-Dawley rat at 10 mg/kg, po measured up to 24 hrs by LC-MS analysis; type: ADME, organism-based; conditions: in vivo
Influenza A virus [21] = experiment: Antiviral activity against Influenza A virus H1N1 (A/Puerto Rico/8/34) infected in MDCK cells assessed as reduction in NP protein level at 1 uM in presence of rNTP by Western blot analysis; type: functional, organism-based
[22] = Cmax in Sprague-Dawley rat at 3 mg/kg, iv measured up to 24 hrs by LC-MS analysis; type: ADME, organism-based; conditions: in vivo
[23] = Metabolic stability in dog liver microsomes assessed as half life preincubated for 5 mins followed by NADPH addition and measured upto 45 mins by LC-MS analysis; type: ADME, Canis lupus familiaris, Microsome; conditions: time < 50 min
Influenza B virus [24] = experiment: Antiviral activity against influenza B virus B/Yamagata/16/88 infected in MDCK cells; type: functional, organism-based; conditions: B/Yamagata/16/88, MDCK
[25] = Metabolic stability in dog liver microsomes assessed as intrinsic clearance preincubated for 5 mins followed by NADPH addition and measured upto 45 mins by LC-MS analysis; type: ADME, Canis lupus familiaris, Microsome; conditions: time < 50 min, read-out: CLH
[26] = Toxicity in BALB/c mouse assessed as animal death at 1 g/kg, IG administered 3 times per day and measured for 14 days; conditions: in vivo, po, 1000 mg/kg, 336 h, time 14 day
Influenza B virus [27] = experiment: Antiviral activity against influenza B virus Victoria/2/87 infected in MDCK cells; type: functional, organism-based; conditions: Victoria/2/87, MDCK
[28] = Toxicity in BALB/c mouse assessed as lethargy at 1 g/kg, IG administered 3 times per day and measured for 14 days; conditions: in vivo, po, 1000 mg/kg, 336 h, time 14 day
[29] = Toxicity in BALB/c mouse assessed as body weight loss at 1 g/kg, IG administered 3 times per day and measured on day 4 to 9; conditions: in vivo, po, 1000 mg/kg, time 4-9 day
[30] = Toxicity in BALB/c mouse assessed as anorexia at 1 g/kg, IG administered 3 times per day and measured for 14 days; conditions: in vivo, po, 1000 mg/kg, 336 h, time 14 day
Influenza A virus [31] = experiment: Antiviral activity against Influenza A virus H1N1 (A/Puerto Rico/8/34) infected in MDCK cells assessed as reduction in NP protein level at 1 uM in presence of rCTP by Western blot analysis; type: functional, organism-based
[32] = Metabolic stability in dog liver microsomes assessed as hepatic extraction ratio preincubated for 5 mins followed by NADPH addition and measured upto 45 mins by LC-MS analysis; type: ADME, Canis lupus familiaris, Microsome; conditions: time < 50 min
[33] = AUC(0 to infinity) in Sprague-Dawley rat at 3 mg/kg, iv measured up to 24 hrs by LC-MS analysis; type: ADME, organism-based; conditions: Sprague-Dawley, in vivo
[34] = Toxicity in BALB/c mouse assessed as body weight loss at 1 g/kg, IG administered 3 times per day; conditions: in vivo, po, 1000 mg/kg
[35] = Metabolic stability in human liver microsomes assessed as hepatic extraction ratio preincubated for 5 mins followed by NADPH addition and measured upto 45 mins by LC-MS analysis; type: ADME, Microsome; conditions: time < 50 min
[36] = Metabolic stability in mouse liver microsomes assessed as half life preincubated for 5 mins followed by NADPH addition and measured upto 45 mins by LC-MS analysis; type: ADME, Microsome; conditions: time < 50 min
[37] = Half life in Sprague-Dawley rat at 3 mg/kg, iv measured up to 24 hrs by LC-MS analysis; type: ADME, organism-based; conditions: in vivo
[38] = Oral bioavailability in Sprague-Dawley rat at 10 mg/kg measured up to 24 hrs by LC-MS analysis; type: ADME, organism-based; conditions: in vivo
[39] = AUC(0 to infinity) in Sprague-Dawley rat at 10 mg/kg, po measured up to 24 hrs by LC-MS analysis; type: ADME, organism-based; conditions: in vivo
[40] = Metabolic stability in human liver microsomes assessed as intrinsic clearance preincubated for 5 mins followed by NADPH addition and measured upto 45 mins by LC-MS analysis; type: ADME, Microsome; conditions: time < 50 min, read-out: CLH
[41] = Clearance in Sprague-Dawley rat at 3 mg/kg, iv measured up to 24 hrs by LC-MS analysis; type: ADME, organism-based; conditions: in vivo
[42] = Metabolic stability in mouse liver microsomes assessed as intrinsic clearance preincubated for 5 mins followed by NADPH addition and measured upto 45 mins by LC-MS analysis; type: ADME, Microsome; conditions: time < 50 min, read-out: CLH
[43] = Cmax in Sprague-Dawley rat at 10 mg/kg, po measured up to 24 hrs by LC-MS analysis; type: ADME, organism-based; conditions: in vivo
[44] = Metabolic stability in mouse liver microsomes assessed as hepatic clearance preincubated for 5 mins followed by NADPH addition and measured upto 45 mins by LC-MS analysis; type: ADME, Microsome; conditions: time < 50 min
[45] = Metabolic stability in human liver microsomes assessed as hepatic clearance preincubated for 5 mins followed by NADPH addition and measured upto 45 mins by LC-MS analysis; type: ADME, Microsome; conditions: time < 50 min
[46] = Metabolic stability in mouse liver microsomes assessed as hepatic extraction ratio preincubated for 5 mins followed by NADPH addition and measured upto 45 mins by LC-MS analysis; type: ADME, Microsome; conditions: time < 50 min
Influenza A virus [47] = experiment: Antiviral activity against Influenza A virus H1N1 (A/Puerto Rico/8/34) infected in MDCK cells assessed as reduction in NP protein level at 1 uM in presence of 125 uM rNTP by Western blot analysis; type: functional, organism-based
Influenza A virus [48] = experiment: Antiviral activity against Influenza A virus H1N1 (A/Puerto Rico/8/34) infected in MDCK cells assessed as reduction in NP protein level at 1 uM in presence of rUTP by Western blot analysis; type: functional, organism-based
[49] = AUC(0 to t) in Sprague-Dawley rat at 3 mg/kg, iv measured up to 24 hrs by LC-MS analysis; type: ADME, organism-based; conditions: in vivo

In the case of `CC(C)(C)c1ccc(C(=O)NC(=S)Nc2ccc(NC(=O)c3ccc(C(C)(C)C)cc3)cc2)cc1`, the Activity (Influenza A virus [1]) is reported as “Dose-Dependent Effect”, the AUC(0-t) at 24 h [2] is reported as 5420 ng·h/mL and the EC50 (Influenza A virus [3]) is reported as 1 nM. The Activity (Influenza A virus [4]) was “Dose-Dependent Effect”, the half-life [5] was 3.2 h and the CC50 [6] was > 100000 nM. For the same compound, the Activity (Influenza A virus [7]) was “Active”, the half-life [8] was 1.28 h and the Activity (Influenza A virus [9]) was “Active”. For the same compound, the Activity (Influenza A virus [10]) was “Active”, the Activity [11] was “Non-Toxic” and the Activity (Influenza A virus [12]) was 50%. The inhibition (Influenza A virus [13]) was “Dose-Dependent Effect”, the Activity [14] was “Non-Toxic” and the Tmax [15] was 4.8 min. The remaining at 2 h [16] was 64%, the half-life [17] was 3.26 h and the CLhep predicted [18] was 19.8 mL/min/kg. The selectivity ratio [19] was > 120000, the Tmax [20] was 4 h and the Activity (Influenza A virus [21]) was “inactive”. It also gave a Cmax [22] of 41900 ng/mL, a half-life [23] of 1.04 h and an EC50 (Influenza B virus [24]) of 50 nM. The CLint scaled [25] was 55.1 mL/min/kg, the Activity [26] was “Non-Toxic” and the EC50 (Influenza B virus [27]) was 40 nM. For the same compound, the Activity [28] was “Non-Toxic”, the Activity [29] was “Non-Toxic” and the Activity [30] was “Non-Toxic”. For the same compound, the Activity (Influenza A virus [31]) was “inactive”, the hepatic extraction ratio at 0.75 h [32] was 64.1% and the AUC(0-inf) [33] was 21900 ng·h/mL. For the same compound, the Activity [34] was “Toxic”, the hepatic extraction ratio at 0.75 h [35] was 52.3% and the half-life [36] was 0.891 h. The half-life [37] was 3.69 h, the bioavailability [38] was 7.38% and the AUC(0-inf) [39] was 5400 ng·h/mL. It also gave a CLint scaled [40] of 22.7 mL/min/kg, a clearance [41] of 2.29 mL/min/kg and a CLint scaled [42] of 102 mL/min/kg. For the same compound, the Cmax [43] was 1180 ng/mL, the CLhep predicted [44] was 47.8 mL/min/kg and the CLhep predicted [45] was 10.8 mL/min/kg. For the same compound, the hepatic extraction ratio at 0.75 h [46] was 53.1%, the Activity (Influenza A virus [47]) was “inactive” and the Activity (Influenza A virus [48]) was “inactive”. The AUC(0-t) at 24 h [49] was 21900 ng·h/mL.
